Tests used:
Assay in all cases: Kinobeads elution with test compound, mouse brain lysate, MS
Type in all cases: binding
Conditions in all cases: kinase released from kinobeads by specific elution
[1] = target: T1, TRKB (Mus musculus, UniProt P15209)
T1 construct: from tissue; host or cells: mouse brain
From the text: This example illustrates competitive elution of proteins bound to kinobeads with non-modified test compounds (see particularly the fourth aspect of the invention).
The kinobeads were contacted with mouse brain lysate under conditions that allow the binding of the proteins in the lysate to the ligands. The binding conditions were close to physiological by choosing suitable buffer conditions preserving the function of the proteins. After removing non-captured proteins through a gentle washing procedure the bound proteins were contacted with a test compound for protein elution.
Various test compounds (see section 2.7) were used to release bound proteins following these steps:
1. Resuspend beads with bound proteins (section 2.4) in 1×DP buffer/0.2% NP-40 as 1:3 slurry (volume/volume). 2. Transfer 20 μl the 1:3 slurry into MoBiTech columns (equivalent to 5 μl of beads). 3. Place the column into an Eppendorf tube and centrifuge it for 15 seconds at 800 rpm at 4° C. Close columns with lower lid. 4. Add 10 μl elution buffer containing 1.0 mM of the test compound (concentration ranges of 0.1 to 1.0 mM are suitable). As a control use elution buffer containing 2% DMSO or 2% DMF dependent on the solvent used for dissolving the test compound. Close column with upper lid. 5. Incubate for 30 minutes at 4° C. in an Eppendorf incubator at 700 rpm. 6. […] To harvest the eluate centrifuge 2 minutes at 2.000 rpm in table top centrifuge at room temperature. The typical volume of the eluate is approximately 15 μl. 7. Add 5 μl 4× NuPAGE SDS Sample Buffer (Invitrogen, NP0007) containing 100 mM DTT (DTT has to be added just prior to use). 8. Incubate for 30 minutes at 50° C. 9. Add 1/10 volume of 200 mg/ml iodoacetamide, incubate for 30 min at room temperature, protect from light. This reaction leads to the alkylation of cysteines for mass spectrometry. 10. Before loading samples onto the gel, centrifuge samples for 5 minutes at 15.000 rpm in order to remove precipitates. 11. […] 2.6 Preparation of Stock Solutions used in this Protocol
Search criteria varied depending on which mass spectrometer was used for the analysis.

[2] = target: T2, EphB1 (Mus musculus, UniProt Q8CBF3)
T2 sequence (Q8CBF3 18-984): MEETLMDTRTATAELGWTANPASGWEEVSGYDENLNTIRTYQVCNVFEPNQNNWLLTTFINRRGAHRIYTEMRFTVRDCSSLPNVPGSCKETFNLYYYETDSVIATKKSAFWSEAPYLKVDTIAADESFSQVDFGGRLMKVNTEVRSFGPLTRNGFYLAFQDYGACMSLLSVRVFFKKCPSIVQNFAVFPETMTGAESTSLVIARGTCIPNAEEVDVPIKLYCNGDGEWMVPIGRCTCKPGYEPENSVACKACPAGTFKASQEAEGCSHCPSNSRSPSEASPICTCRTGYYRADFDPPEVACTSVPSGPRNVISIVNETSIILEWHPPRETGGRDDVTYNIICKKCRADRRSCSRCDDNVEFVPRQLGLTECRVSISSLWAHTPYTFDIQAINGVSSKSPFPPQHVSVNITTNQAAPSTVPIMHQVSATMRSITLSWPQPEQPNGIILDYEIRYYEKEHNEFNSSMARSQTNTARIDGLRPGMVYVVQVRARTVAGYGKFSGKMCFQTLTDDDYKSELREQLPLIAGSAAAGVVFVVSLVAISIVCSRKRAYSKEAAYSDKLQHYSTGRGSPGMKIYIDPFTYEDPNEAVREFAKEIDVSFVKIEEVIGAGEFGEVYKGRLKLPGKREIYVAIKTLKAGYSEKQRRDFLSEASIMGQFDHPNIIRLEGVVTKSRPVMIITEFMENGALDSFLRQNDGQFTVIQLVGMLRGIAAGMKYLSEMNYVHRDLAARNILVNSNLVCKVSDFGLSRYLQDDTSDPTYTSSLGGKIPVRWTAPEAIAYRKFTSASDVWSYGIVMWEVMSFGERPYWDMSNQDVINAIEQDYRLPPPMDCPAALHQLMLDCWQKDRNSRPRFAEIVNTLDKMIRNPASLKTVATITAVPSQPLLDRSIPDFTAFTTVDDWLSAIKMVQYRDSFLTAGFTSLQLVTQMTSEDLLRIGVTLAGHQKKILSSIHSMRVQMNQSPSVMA
Method in brief: (§1)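 Kinobeads preloaded with mouse brain lysate under near-physiological buffer conditions were washed gently, then eluted for 30 min at 4° C with elution buffer holding 1.0 mM test compound; DMSO or DMF (2%) buffer served as control. Released proteins were reduced, alkylated, gel-separated and identified by mass spectrometry.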

[3] = target: T3, p38b (Mus musculus, UniProt Q9WUI1)
T3 construct: from tissue; host or cells: mouse brain
Method in brief: as §1

[4] = target: T4, p38a (Mus musculus, UniProt P47811)
T4 construct: from tissue; host or cells: mouse brain
Method in brief: as §1

[5] = target: ARG (Mus musculus, UniProt Q4JIM5)
Method in brief: as §1

T3 sequence (Q9WUI1 whole entry): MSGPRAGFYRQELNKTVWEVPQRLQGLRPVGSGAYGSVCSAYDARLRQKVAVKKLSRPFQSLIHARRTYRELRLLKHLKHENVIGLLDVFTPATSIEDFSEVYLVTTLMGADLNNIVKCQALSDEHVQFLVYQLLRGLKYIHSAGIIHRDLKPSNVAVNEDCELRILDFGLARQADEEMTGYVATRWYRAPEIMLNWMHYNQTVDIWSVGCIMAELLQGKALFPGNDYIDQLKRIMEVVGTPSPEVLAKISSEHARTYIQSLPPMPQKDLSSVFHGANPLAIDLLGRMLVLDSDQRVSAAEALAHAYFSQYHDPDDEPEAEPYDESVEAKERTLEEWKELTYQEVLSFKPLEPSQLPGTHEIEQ
T4 sequence (P47811 whole entry): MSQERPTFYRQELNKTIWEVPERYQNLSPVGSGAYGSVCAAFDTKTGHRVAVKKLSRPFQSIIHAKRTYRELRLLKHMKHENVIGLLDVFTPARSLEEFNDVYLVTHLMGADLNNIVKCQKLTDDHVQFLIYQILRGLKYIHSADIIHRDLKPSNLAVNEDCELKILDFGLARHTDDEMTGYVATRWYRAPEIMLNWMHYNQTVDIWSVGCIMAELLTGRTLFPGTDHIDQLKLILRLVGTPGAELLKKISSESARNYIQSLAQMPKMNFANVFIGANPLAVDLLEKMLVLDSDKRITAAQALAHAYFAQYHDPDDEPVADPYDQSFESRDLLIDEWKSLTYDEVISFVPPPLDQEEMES
T1 sequence (P15209 32-821): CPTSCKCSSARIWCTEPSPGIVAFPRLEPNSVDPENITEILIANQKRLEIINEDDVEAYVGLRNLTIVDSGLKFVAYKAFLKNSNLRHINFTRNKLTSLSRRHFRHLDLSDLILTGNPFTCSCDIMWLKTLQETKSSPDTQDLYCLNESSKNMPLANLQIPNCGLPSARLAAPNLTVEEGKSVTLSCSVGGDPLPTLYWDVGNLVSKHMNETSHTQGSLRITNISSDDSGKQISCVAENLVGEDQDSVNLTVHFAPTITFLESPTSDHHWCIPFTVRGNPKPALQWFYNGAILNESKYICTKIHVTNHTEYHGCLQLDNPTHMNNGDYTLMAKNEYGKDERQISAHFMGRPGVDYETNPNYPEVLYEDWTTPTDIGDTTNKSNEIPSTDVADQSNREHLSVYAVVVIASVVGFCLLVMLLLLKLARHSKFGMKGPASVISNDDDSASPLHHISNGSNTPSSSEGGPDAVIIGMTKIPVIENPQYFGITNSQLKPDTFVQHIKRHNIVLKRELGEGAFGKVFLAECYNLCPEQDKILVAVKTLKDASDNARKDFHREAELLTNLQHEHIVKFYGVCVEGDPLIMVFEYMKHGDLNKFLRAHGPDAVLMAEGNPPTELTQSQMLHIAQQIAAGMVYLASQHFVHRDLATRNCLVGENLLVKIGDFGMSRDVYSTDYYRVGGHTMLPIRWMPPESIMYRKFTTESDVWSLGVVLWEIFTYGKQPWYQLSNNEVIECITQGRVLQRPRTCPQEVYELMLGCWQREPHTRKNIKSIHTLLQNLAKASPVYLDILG
ARG, sequence (Q4JIM5 whole entry): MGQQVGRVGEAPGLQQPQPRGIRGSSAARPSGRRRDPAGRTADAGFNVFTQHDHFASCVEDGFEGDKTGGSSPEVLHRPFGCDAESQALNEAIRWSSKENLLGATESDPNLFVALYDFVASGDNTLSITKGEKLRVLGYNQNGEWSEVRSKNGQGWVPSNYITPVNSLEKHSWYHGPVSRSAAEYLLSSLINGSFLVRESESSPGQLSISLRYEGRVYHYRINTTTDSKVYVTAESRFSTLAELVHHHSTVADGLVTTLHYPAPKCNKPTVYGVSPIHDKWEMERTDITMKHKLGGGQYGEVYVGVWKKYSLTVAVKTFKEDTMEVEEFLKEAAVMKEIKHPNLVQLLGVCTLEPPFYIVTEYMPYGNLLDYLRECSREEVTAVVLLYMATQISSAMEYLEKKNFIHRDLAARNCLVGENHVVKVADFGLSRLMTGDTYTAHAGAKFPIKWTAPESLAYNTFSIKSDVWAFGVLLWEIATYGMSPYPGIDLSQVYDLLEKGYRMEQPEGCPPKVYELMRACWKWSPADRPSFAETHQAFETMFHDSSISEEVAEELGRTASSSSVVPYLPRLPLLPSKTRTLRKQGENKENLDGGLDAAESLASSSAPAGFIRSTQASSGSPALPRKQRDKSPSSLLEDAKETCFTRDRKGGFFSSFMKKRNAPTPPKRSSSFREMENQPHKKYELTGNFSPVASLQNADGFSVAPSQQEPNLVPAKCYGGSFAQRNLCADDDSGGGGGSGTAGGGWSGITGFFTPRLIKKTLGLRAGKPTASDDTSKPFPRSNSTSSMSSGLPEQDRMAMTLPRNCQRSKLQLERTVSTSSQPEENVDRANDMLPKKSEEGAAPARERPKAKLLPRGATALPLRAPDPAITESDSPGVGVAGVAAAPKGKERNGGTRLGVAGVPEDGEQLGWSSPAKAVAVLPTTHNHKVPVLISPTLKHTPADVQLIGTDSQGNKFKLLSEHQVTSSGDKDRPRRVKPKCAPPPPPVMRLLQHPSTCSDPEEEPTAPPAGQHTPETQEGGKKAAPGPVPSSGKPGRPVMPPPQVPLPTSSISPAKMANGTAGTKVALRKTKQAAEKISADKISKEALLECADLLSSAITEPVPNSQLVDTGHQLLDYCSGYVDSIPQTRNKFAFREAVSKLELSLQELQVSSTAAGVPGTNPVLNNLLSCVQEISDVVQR

mass spectrometry score, TRKB [1] | mass spectrometry score, EphB1 [2] | number of identified peptides, EphB1 [2] | mass spectrometry score, p38b [3] | number of identified peptides, p38b [3] | mass spectrometry score, p38a [4] | number of identified peptides, p38a [4] | mass spectrometry score, ARG [5] | number of identified peptides, ARG [5] | SMILES | number of identified peptides, TRKB [1]
207 | 366 | 10 | – | – | – | – | – | – | CC(C)[C@H](CO)Nc1nc(Nc2ccc(C(=O)O)c(Cl)c2)c2ncn(C(C)C)c2n1 [Purvalanol B, reference compound] | 4
– | – | – | 60 | 1 | 127 | 6 | 59 | 2 | Cn1c(=O)c(-c2c(Cl)cccc2Cl)cc2cnc(Nc3ccc(CN)cc3)cc21 [CZC7324] | –
– | – | – | – | – | – | – | – | – | CNC1CC2OC(C)(C1OC)n1c3ccccc3c3c4c(c5c6ccccc6n2c5c31)C(=O)NC4 (stereo not shown) [CZC9280] | 4
– | 180 | 10 | 95 | 3 | 104 | 7 | 452 | 28 | CCCCCCCCCCCCOS(=O)(=O)[O-].[Na+] [SDS] | –

From US20090238808A1, “Process for the identification of novel enzyme interacting compounds” (priority 2005, published 2009)
